Columns and labels:
TxtE [1] = target: T1, TxtE (Streptomyces scabiei, UniProt C9ZDC6); experiment: biochemical; type: binding, Streptomyces scabies; set-up: made in house; host or cells: E. coli BL21-GOLD (DE3), pET28b
Experimental: (§1) The ferric heme of enzymes was then saturated by bubbling carbon monoxide (Airgas) and the spectra of the saturated enzyme solutions were recorded. Sodium dithionite solution (30 μL, 0.5 M) was then added to reduce ferric ion, and reduced spectra were taken subsequently. CO reduced difference spectra of all P450s were created by […]. Data were further analyzed by Excel. […] The changes in absorbance (ΔA) were determined by subtracting the absorbance at ~420 nm from that at ~390 nm. Data were then fitted to the equation of ΔA = ΔAmax[L]/(Kd + [L]) using GraphPad Prism 4.
(§2) in 25 mM Tris-HCl, pH 8.0. All experiments were repeated at least three times. Data
(§3) were fitted to the Michaelis-Menten equation.

TB14 [2] = target: T2, TB14 (UniProt C9ZDC6); experiment: Binding affinities of Trp analogues toward TB14 (spectral shift); details: 1.5 µM enzyme, 25 mM Tris-HCl pH 8.0
T2 construct: BM3R: reductase domain of CYP102A1 (P450BM3); made in house; host or cells: E. coli BL21-GOLD (DE3), pET28b-TxtE-BM3R
Experimental: as §1
(§4) in 25 mM Tris-HCl, pH 8.0. All experiments were repeated at least three times. […]

TxtE [3] = target: T3, TxtE (Streptomyces scabiei, UniProt C9ZDC6); experiment: UV-Vis difference spectroscopy (Type I shift) titration of Trp analogues to 1.5 µM purified P450 in 25 mM Tris-HCl, pH 8.0, fitted to Michaelis-Menten type equation; at least three repeats.; type: binding; details: n = 3
T3 construct: wild type, pET28b construct, Ni-NTA purified
T3 sequence (C9ZDC6 1-406): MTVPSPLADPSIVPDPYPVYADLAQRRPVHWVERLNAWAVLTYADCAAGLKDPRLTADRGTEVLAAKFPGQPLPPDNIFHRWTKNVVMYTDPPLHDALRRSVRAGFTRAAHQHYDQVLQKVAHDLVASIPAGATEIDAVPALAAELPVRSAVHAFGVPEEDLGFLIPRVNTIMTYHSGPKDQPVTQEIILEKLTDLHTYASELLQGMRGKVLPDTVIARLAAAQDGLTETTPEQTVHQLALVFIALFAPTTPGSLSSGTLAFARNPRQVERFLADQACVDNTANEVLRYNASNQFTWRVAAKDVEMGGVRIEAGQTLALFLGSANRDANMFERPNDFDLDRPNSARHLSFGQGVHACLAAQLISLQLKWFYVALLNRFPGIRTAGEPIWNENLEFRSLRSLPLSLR
Experimental: as §1, §2, §3

TB14 [4] = target: T4, TB14 (UniProt C9ZDC6+P14779); experiment: Binding affinities of Trp analogues toward TB14 (spectral shift); details: for Kd: read-out: TB14 Kd, 1.5 µM enzyme, 25 mM Tris-HCl pH 8.0
T4 construct: BM3R: reductase domain of CYP102A1 (P450BM3); made in house; host or cells: E. coli BL21-GOLD (DE3), pET28b-TxtE-BM3R
Experimental: as §1, §4

TB14 [5] = target: T4, TB14; experiment: Nitration of Trp analogues by TB14 (HPLC, 45 min); type: biochemical; details: for nitrated a significant amount by TB14: after 45 mins, 0.5 mM substrate, 1.5 µM P450
Experimental: (§5) The reactions were prepared as described previously and incubated at 20 °C, 300 rpm for 45 minutes. All experiments were repeated at least three times.
(§6) After centrifugation, 10 μl solutions were analyzed by HPLC. […] All reactions were independently repeated at least three times. In TTN and coupling efficiency studies, 0.5 µM P450s and 0.5 mM substrate were used. […] All experiments were performed at least in triplication.

TxtE [6] = target: T1, TxtE; type: biochemical, Streptomyces scabies; set-up: made in house; details: for nitrated a significant amount by TxtE: after 45 mins, 0.5 mM substrate, 1.5 µM P450
Experimental: as §5, §6

TB14 [7] = target: T4, TB14; experiment: Scaled-up TB14 nitration of 4-Me-DL-Trp (Marfey's derivatization, NMR); type: biochemical; details: scaled-up reaction with 4-Me-DL-Trp
Experimental: The reactions in a 200-ml flask were incubated at 20 °C, 250 rpm overnight, and then terminated by 20 mL methanol or acidification to pH 1.0 with 6 M HCl. After centrifugation, the supernatants were concentrated in vacuo and then freeze-dried. The products were redissolved in 3 ml methanol for semi-preparation[22].
4-Me-Trp and nitrated 4-Me-Trp from enzyme reactions were reacted with Marfey’s reagent following manufacture manual (Thermo Scientific). Derivatized products were analyzed by LC-MS with A SHIMADZU Prominence UPLC system fitted with a Waters SymmetryShieldTM RP-C18 column (3.5 µm, 4.6 × 100 mm) and a Linear Ion Trap Quadrupole LC/MS/MS Mass Spectrometer system. The flow rate was 0.5 mL/min. The column was eluted with 90% solvent A (0.05 M triethylammonium acetate, pH 3.0), 10% solvent B (acetonitrile) for 2 min and then with a linear gradient of 10–50% solvent B for 60 min. The column was then cleaned by 50% solvent B for 5 min followed by a re-equilibration with 10% solvent B for 2 min. For MS detection, the turbo spray conditions used were: curtain gas: 30 psi; ion spray voltage: 5000 V; temperature: 550 °C; ion source gas 1: 30 psi; ion source gas 2: 20 psi.

TB27 = experiment: UV-Vis difference spectroscopy (Type I shift, ΔA ~390 minus ~420 nm) titration of Trp to 1.5 µM purified P450 in 25 mM Tris-HCl, pH 8.0, hyperbolic fit; at least three repeats.; type: binding; details: n = 3
Experimental: (§7) We next determined coupling efficiency to evaluate the extent to which linker length and structural swapping may affect electron transfer compatibility during nitration reaction (Table 1). […] Additionally, we determined total turnover number (TTN) as nmol product per nmol P450 in all reactions (Table 1).
as §1

TB24 = experiment: as above; type: binding; details: n = 3
Experimental: as §7, §1

TB15 = experiment: as above; type: binding; details: n = 3
Experimental: as §7, §1

TB12 = experiment: as above; type: binding; details: n = 3
Experimental: as §7, §1

TB17 = experiment: as above; type: binding; details: n = 3
Experimental: as §7, §1

TB19 = experiment: as above; type: binding; details: n = 3
Experimental: as §7, §1

TB13-Q = experiment: as above; type: binding; details: n = 3
Experimental: as §7, §1

TB22 = experiment: as above; type: binding; details: n = 3
Experimental: as §7, §1

TB13 = experiment: as above; type: binding; details: n = 3
Experimental: as §7, §1

TB16 = experiment: as above; type: binding; details: n = 3
Experimental: as §7, §1

TB13S = experiment: as above; type: binding; details: n = 3
Experimental: as §7, §1

TB11 = experiment: as above; type: binding; details: n = 3
Experimental: as §7, §1

[8] = read-out: TxtE Kd (µM), TB14 Kd

With `NCCc1c[nH]c2ccc(O)cc12` [Serotonin] the Kd (TxtE [1]) was 320 ± 31 µM and the Kd (TB14 [2]) was 310 ± 39 µM.

`N[C@@H](Cc1c[nH]c2ncccc12)C(=O)O` [7-Azatryptophan] was tested, and the Kd (TxtE [1]) was 17 ± 1 µM and the Kd (TB14 [2]) was 26 ± 1 µM.

Compound `NCCc1c[nH]c2ccccc12` [Tryptamine] has a Kd (TxtE [1]) of 68 ± 6 µM and a Kd (TB14 [2]) of 60 ± 8 µM.

`NC(Cc1c[nH]c2cc(F)ccc12)C(=O)O` (racemic) [6-F-Trp, 6-fluoro-DL-tryptophan] was tested, and the Kd (TxtE [3]) was 73 µM.

`N[C@@H](Cc1c[nH]c2ccc(O)cc12)C(=O)O` [5-OH-L-Trp, 5-hydroxy-L-tryptophan] was tested, and the Kd (TxtE [3]; [8]) was 340 µM.

`Cc1cccc2c(CC(N)C(=O)O)c[nH]c12` (racemic) [7-Me-Trp, 7-methyl-DL-tryptophan] showed a Kd (TxtE [3]; [8]) of 13 µM.

Work on `N[C@H](Cc1c[nH]c2ccccc12)C(=O)O` [D-Trp] yielded a Kd (TB14 [4]) of 470 ± 25 µM.

`Cc1cccc2c(CC(N)C(=O)O)c[nH]c12` (centres unmarked) [7-Me-Trp] was tested, and the “nitrated a significant amount by TB14” value (TB14 [5]) was “not” and the Kd (TB14 [4]) was 11 ± 1 µM.

For `N[C@@H](Cc1c[nH]c2cc(F)ccc12)C(=O)O` [6-F-Trp], the “nitrated a significant amount by TxtE” value (TxtE [6]) was “nitrated a significant amount”, the “nitrated a significant amount by TB14” value (TB14 [5]) was “nitrated a significant amount” and the Kd (TB14 [4]) was 65 ± 5 µM.

For `CC(N)(Cc1c[nH]c2ccccc12)C(=O)O` (stereo not drawn) [α-Me-Trp], the “nitrated a significant amount by TB14” value (TB14 [5]) was “not”, the Kd (TxtE [1]; read-out: TxtE Kd, 1.5 µM enzyme, 25 mM Tris-HCl pH 8.0) was 100 ± 4 µM and the Kd (TB14 [4]) was 95 ± 9 µM.

For `O=C(O)C1Cc2c([nH]c3ccccc23)CN1` (stereo not drawn) [2,3,4,9-Tetrahydro-1H-β-carboline-3-carboxynate], the Kd (TB14 [4]) was 730 ± 86 µM.

In the case of `O=C(O)C1Cc2c([nH]c3ccccc23)CN1` (stereo not drawn) [2,3,4,9-tetrahydro-1H-β-carboline-3-carboxylate], the Kd (TxtE [3]; [8]) is reported as 580 µM.

`c1ccc2[nH]ccc2c1` [indole] was tested, and the “interaction with TxtE in spectroscopic analysis” value (TxtE [1]) was “no detectable level of interaction” and the “interaction with TB14 in spectroscopic analysis (Type I spectral shift)” value (TB14 [4]) was “no detectable level of interaction”.

`N[C@@H](Cc1c[nH]c2ccccc12)C(=O)O` [L-Trp, L-tryptophan] gave a Kd (TxtE [1]) of 25 ± 1 µM and a Kd (TB14 [2]) of 17 ± 1 µM.

With `N[C@@H](Cc1c[nH]c2ccc(F)cc12)C(=O)O` [5-F-L-Trp] the “substrate ranking in the TxtE reaction” value (TxtE [6]; 45 min) was “best substrate of TxtE”, the “nitrated a significant amount by TxtE” value (TxtE [6]) was “nitrated a significant amount” and the “substrate ranking in the TB14 reaction” value (TB14 [5]; 45 min) was “comparable to Trp as the best”. The “nitrated a significant amount by TB14” value (TB14 [5]) was “nitrated a significant amount” and the Kd (TB14 [4]) was 78 ± 6 µM.

With `NC(Cc1c[nH]c2cccc(F)c12)C(=O)O` (centres unmarked) [4-F-Trp] the “nitrated a significant amount by TB14” value (TB14 [5]) was “not” and the Kd (TB14 [4]) was 180 ± 13 µM.

`N[C@@H](Cc1c[nH]c2ccc(F)cc12)C(=O)O` [5-F-L-Trp, 5-fluoro-L-tryptophan] was tested, and the Kd (TxtE [3]) was 84 µM.

`N[C@@H](Cc1c[nH]c2ccc(O)cc12)C(=O)O` [5-OH-L-Trp] gave a Kd (TB14 [4]) of 450 ± 16 µM.

Compound `Cc1cccc2[nH]cc(CC(N)C(=O)O)c12` (racemic) [4-Me-Trp, 4-methyl-DL-tryptophan] has a Kd (TxtE [3]) of 10 µM.

`N[C@H](Cc1c[nH]c2ccccc12)C(=O)O` [D-Trp, D-tryptophan] showed a Kd (TxtE [3]; [8]) of 430 µM.

With `Cc1ccc2[nH]cc(CC(N)C(=O)O)c2c1` (centres unmarked) [5-Me-Trp] the “nitrated a significant amount by TxtE” value (TxtE [6]) was “nitrated a significant amount”, the “nitrated a significant amount by TB14” value (TB14 [5]) was “nitrated a significant amount” and the Kd (TB14 [4]) was 30 ± 1 µM.

In the case of `NC(Cc1c[nH]c2cccc(F)c12)C(=O)O` (racemic) [4-F-Trp, 4-fluoro-DL-tryptophan], the Kd (TxtE [3]) is reported as 190 µM.

`Cc1ccc2[nH]cc(CC(N)C(=O)O)c2c1` (racemic) [5-Me-Trp, 5-methyl-DL-tryptophan] showed a Kd (TxtE [3]; [8]) of 35 µM.

With `O=C(O)C(=O)Cc1c[nH]c2ccccc12` [Indole-3-pyruvic acid] the Kd (TxtE [1]) was 390 ± 43 µM and the Kd (TB14 [2]) was 480 ± 32 µM.

In the case of `COc1ccc2[nH]cc(CC(N)C(=O)O)c2c1` (centres unmarked) [5-MeO-Trp], the “nitrated a significant amount by TB14” value (TB14 [5]) is reported as “not” and the Kd (TB14 [4]) is reported as 26 ± 2 µM.

For `Cc1cccc2[nH]cc(CC(N)C(=O)O)c12` (racemic) [4-Me-Trp, 4-Me-DL-Tryptophan], the “nitrated a significant amount by TxtE” value (TxtE [6]) was “nitrated a significant amount”, the “nitration by TB14, times favoured over 4-F-DL-Trp” value (TB14 [5]; 45 min, Fig. 3) was “about 8 times” and the “nitrated a significant amount by TB14” value (TB14 [5]) was “nitrated a significant amount”. The “binding affinity, times higher than 4-F-DL-Trp” value (TB14 [4]; from Table S1) was 13 times and the Kd (TB14 [4]) was 14 ± 1 µM.

With `Cc1cccc2[nH]cc(C[C@H](N)C(=O)O)c12` [4-Me-L-Trp] the “consumption of substrate in the TB14 reaction” value (TB14 [7]) was ~ 85%.

Work on `N[C@@H](Cc1c[nH]c2ccccc12)C(=O)O` [Trp, L-tryptophan] yielded a Kd (TB27) of 16.2 ± 1.1 µM, a Kd (TB24) of 14.9 ± 0.3 µM and a Kd (TB15) of 21.4 ± 0.9 µM. For the same compound, the Kd (TB12) was 22.3 ± 1.4 µM, the Kd (TB17) was 15.5 ± 0.6 µM and the Kd (TB19) was 16 ± 0.8 µM. The Kd (TB13-Q) was 21.5 ± 0.8 µM, the Kd (TB22) was 27.1 ± 1.3 µM and the Kd (TB13) was 21.3 ± 0.4 µM. It also gave a Kd (TB16) of 18.9 ± 1 µM, a Kd (TB13S) of 19.3 ± 0.6 µM and a Kd (TB11) of 16.2 ± 0.6 µM.

For `N[C@H](CO)Cc1c[nH]c2ccccc12` [L-tryptophanol], the Kd (TxtE [3]; [8]) was 220 µM and the Kd (TB14 [4]) was 280 ± 43 µM.

For `COc1ccc2[nH]cc(CC(N)C(=O)O)c2c1` (racemic) [5-MeO-Trp, 5-methoxy-DL-tryptophan], the Kd (TxtE [3]; [8]) was 29 µM.
